Series [1] deals with NIH 3T3 cells co-cultured with B. subtilis 168 or HL60 cancer cells. The series is described as follows: Co-culture selectivity, distribution of FITC-labeled peptide by fluorescence microscopy. The format is cell-based. The settings on record: 20 μM, 1 hour incubation. The procedure:
To further verify the selective cytotoxicity of G(IIKK)3I-NH2 (SEQ ID NO: 3) in vitro, we added the FITC-labeled G(IIKK)3I-NH2 (SEQ ID NO: 3) to the two co-culture systems containing mammalian cell line NIH 3T3 (model host) and bacteria B. subtilis 168 or cancer cell line (HL 60). Specifically, NIH 3T3 cells were cultured at 37° C. with 5% CO2 in IMDM supplemented with 10% FBS. After reaching an over 80% confluence, the cells were transferred into a 6-well plate containing sterile coverslips at bottom to a final concentration of 1×10^5 cells/well. After overnight culture at 37° C., the medium was replaced with 1 ml B. subtilis 168 suspended in PBS with a density of 1×10^6 CFU/ml or 1 ml HL 60 cells suspended in PBS with a density of 1×10^5 cells/ml. Meanwhile, FITC-labeled G(IIKK)3I-NH2 (SEQ ID NO: 3) dissolved in the same buffer was also added to each well to the final concentration of 20 μM. […]
To further confirm the selective responses and cytotoxicity of the peptides, FITC-labeled G(IIKK)3I-NH2 (SEQ ID NO: 3) was synthesized according to the method described previously by Jullian M, et al (Julian et al 2009). […] After incubation for 1 hour, the distribution of FITC-G(IIKK)3I-NH2 (SEQ ID NO: 3) was observed using fluorescence microscopy and the results are shown in FIG. 12. […]

Series [2] relates to HeLa and HL60 cancer cell lines. The settings on record: 24 h.
Procedure: Antitumor activities of peptides were measured using the 3-(4,5-dimethylthiazol-2-yl)-2,-diphenyl tetrazolium bromide (MTT) assay, and the IC50 value was calculated as the concentration of peptide that induced 50% growth inhibition compared to the untreated control.
HeLa and HL60 cells were seeded in 96-well plates (10^5 cells/well) in a complete medium [Iscove's modified dulbecco's medium (IMDM)] with 10% fetal bovine serum (FBS) for 24 h before peptide treatment. […] Following incubation with peptides, 20 μL of a 5 mg/ml solution MTT reagent was added to each well and incubated for 4 h at 37° C. After removing the supernatant, 150 μL of dimethyl sulfoxide (DMSO) was added to dissolve the formazan crystals that remained in the wells. The absorbance was determined using a microplate ELISA Reader at 570 nm. Wells without cells for blanking the spectrophotometer and the cells without peptides were taken as negative controls.
The nature of series [3]: MTT viability of fibroblasts over three days. The format is cell-based, human. The settings on record: human, adult fibroblasts (HDFa cells). The procedure: MTT assay: Cell viability and proliferation is widely assessed by the MTT assay as already described previously.
The fibroblasts cells, Neonatal (HDFn) and Adult (HDFa), were both grown until greater than 80% confluent. […] After 24 hour incubation the culture medium was replaced with fresh medium containing an appropriate amount of the peptide for investigation.
The viability of the fibroblasts, Adult (HDFa) and Neonatal (HDFn) cells in the presence of surfactants was tested by MTT assay over three days relative to control wells containing cells only.

In series [4] the test system is cytokine genes IL2 and IL8 of human lymphocytes. The settings on record: 10 μM, 1 h.
Procedure: RT-PCR (Reverse Transcription Polymerase Chain Reaction and Real Time Polymerase Chain Reaction): To determine the related gene transcriptional activities about HeLa cell apoptosis and the lymphocyte immunological effects, RT-PCR assays were performed. […] Total RNA from the cells was extracted by Trizol following the manufacturer's instructions (Invitrogen, Britain). Total RNA (1 μg) was subject to cDNA synthesis with random primers (PrimeScript Reverse Transcriptase, Takara, Japan). Real-Time PCR was performed with power SYBR green PCR Master Mix kit (Applied Biosystems, American) using a 7500 real-time PCR system (Applied Biosystems, American) according to the protocol of the manufacturer, and the data were analyzed by relative quantitation of the 2^−ΔΔCt method. Transcriptional levels of related genes were normalized to the values of the house keeping gene β-actin.
For series [5], the system named is E. coli DH5α and B. subtilis 168. The format is cell-based, Escherichia coli; Bacillus subtilis. The note with it: 1 h. The procedure:
To determine antibacterial activity of peptides, survival rate curves were constructed. Bacteria (E. coli DH5α or B. subtilis 168) were incubated with peptide at varying peptide concentrations at 37° C. for 1 h. Aliquots of 2 μL were withdrawn, diluted and spread on agar plates. After overnight incubation at 37° C., the surviving bacteria were expressed as the percentage of total cells, and survival curves drawn (FIG. 4). Controls were bacteria without peptide. The minimal inhibitory concentrations (MICs) of each peptide were measured by standard microdilution method. The test was done in sterile 96-well plates in a final volume of 200 μL. Aliquots (100 μL) of a bacterial suspension at 1×10^5 (colony-forming units (CFU)/ml) in culture medium were added to […] peptide solution (2-fold serial dilutions in 10 mM PBS buffer). […] The MIC was defined as the lowest concentration of peptide for which there was no visible growth. Each determination was performed at least three times.

Broadly, the IC50 is the concentration needed to halve the response being measured. Low readings indicate greater potency in that assay, high ones weaker potency in that assay. The term viability denotes a per cent measure of how many cells are alive, often set against a control.

Where no end group is shown, it is not given here. The star is where a group is joined. FITC = O=C1OC2(c3ccc(O)cc3Oc3cc(O)ccc32)c2ccc(NC(=S)*)cc21; Ahx = NCCCCCC(=O)O

On to “FITC-G(IIKK)3I-NH2: N-terminal FITC-labeled G(IIKK)3I-NH2 with 6-aminohexanoic acid (Ahx) between the last amino acid and the thiourea linkage ({FITC-Ahx}-GIIKKIIKKIIKKI-NH2; SMILES CC[C@H](C)[C@H](NC(=O)[C@H](CCCCN)NC(=O)[C@H](CCCCN)NC(=O)[C@@H](NC(=O)[C@@H](NC(=O)[C@H](CCCCN)NC(=O)[C@H](CCCCN)NC(=O)[C@@H](NC(=O)[C@@H](NC(=O)[C@H](CCCCN)NC(=O)[C@H](CCCCN)NC(=O)[C@@H](NC(=O)[C@@H](NC(=O)CNC(=O)CCCCCNC(=S)Nc1ccc2c(c1)C(=O)OC21c2ccc(O)cc2Oc2cc(O)ccc21)[C@@H](C)CC)[C@@H](C)CC)[C@@H](C)CC)[C@@H](C)CC)[C@@H](C)CC)[C@@H](C)CC)C(N)=O)”, for which the “distribution of green fluorescence of FITC-labeled peptide in co-culture” value in series [1] was “concentrated in the bacterial clusters or the HL60 cells but not in any part of the 3T3 cells”.

Substance “GIIKKIIKKIIKKI-NH2 [Helix G3, G(IIKK)3 I-NH2]” displayed an IC50 in series [2] of 4 to 25 µM. In series [3], this substance gave a viability at 24 h, 5 µM of 91%; a viability at 24 h, 25 µM of 88%; a viability at 24 h, 50 µM of 87%; a viability at 24 h, 100 µM of 78%. In series [3], this substance came in with a viability at 48 h, 5 µM of 92%; a viability at 48 h, 25 µM of 85%; a viability at 48 h, 50 µM of 84%; a viability at 48 h, 100 µM of 75%. In series [3], the viability at 72 h, 5 µM is 81%; the viability at 72 h, 25 µM stood at 80%; the viability at 72 h, 50 µM was determined as 75%; the viability at 72 h, 100 µM is 71%. The “relative transcriptional levels of IL2 and IL8 of lymphocytes” value in series [4] was “lower or almost equal to that of control cells”. For the same substance, the “MICs (minimum inhibitory concentrations)” value in series [5] was 0.5 to 8 µM.

Source of the values: patent US9745348B2 (The University of Manchester, priority 2011, dated 2017).
